Test systems include A498; A549; COLO 205; HCC 2998; HCT-15; HOP-62; NCI-H226; NCI-H23; OVCAR-8; SK-MEL-2; SNB-19; SNB-75; 786-0; ACHN; M14; NCI-H522; SF-268; SN12C; TK-10; UO-31.
Experiment in all cases: inhibition of tumour cell growth, NCI panel, 48 h

SMILES strings stand for the structures.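 How tested: cells in 96-well plates exposed to compound for 48 hours at five concentrations. GI50 = concentration required for 50% inhibition of growth.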 The source made the active and inactive calls. No stated cut-off is given here; in the data, active = GI50 up to about 1.1 µM and inactive = higher.

As to `CCCSc1nc(COC(=O)NC)c(COC(=O)NC)n1C`, the GI50 in the experiment on A498 was > 62.7 µM (inactive); in the experiment on A549, > 100 µM (inactive); in the experiment on COLO 205 it was > 100 µM (inactive); in the experiment with HCC 2998, > 100 µM (inactive); in the experiment on HCT-15, greater than 83 µM; in the experiment on HOP-62, > 100 µM (inactive). The GI50 is > 100 µM (inactive) in the experiment with NCI-H226; > 78.5 µM (inactive) in the experiment with NCI-H23; > 100 µM (inactive) with OVCAR-8; > 100 µM (inactive) in the experiment with SK-MEL-2; > 100 µM (inactive) in the experiment on SNB-19; > 91.2 µM (inactive) with SNB-75.

Take `O=C(CCc1ccc(O)c(O)c1)OCCc1ccccc1`: the GI50 was 19.7 µM (inactive) with 786-0; > 100 µM (inactive) with A498; > 100 µM (inactive) with A549; 59.7 µM (inactive) in the experiment on ACHN; 42.7 µM (inactive) with COLO 205; > 100 µM (inactive) with HCC 2998. The GI50 in the experiment on HCT-15 is greater than 53 µM; in the experiment on HOP-62, > 31.6 µM (inactive); in the experiment on M14 it was 67.3 µM (inactive); in the experiment on NCI-H226, > 100 µM (inactive); with NCI-H23, > 65.3 µM (inactive); in the experiment with NCI-H522, 3.7 µM (inactive). Moreover, the GI50 is 23.1 µM (inactive) in the experiment on OVCAR-8; > 100 µM (inactive) in the experiment with SF-268; > 100 µM (inactive) in the experiment with SK-MEL-2; > 61.1 µM (inactive) in the experiment with SN12C; > 100 µM (inactive) in the experiment with SNB-19; > 100 µM (inactive) in the experiment on TK-10. Besides, the GI50 in the experiment with UO-31 is > 80.9 µM (inactive).

For the compound `O=S(=O)(N/N=C/c1c(Cl)cccc1Cl)c1ccccc1`, the GI50 in the experiment on A498 was > 100 µM (inactive); in the experiment with A549 it was > 100 µM (inactive); in the experiment with COLO 205, > 100 µM (inactive); in the experiment on HCC 2998, > 100 µM (inactive); in the experiment on HCT-15 it was greater than 100 µM; in the experiment with HOP-62 it was > 100 µM (inactive). Also, the GI50 with M14, with NCI-H226, in the experiment on NCI-H23, in the experiment on OVCAR-8, in the experiment on SF-268 and with SK-MEL-2 was > 100 µM (inactive) each time. Also, the GI50 was > 100 µM (inactive) with SN12C, 31.3 µM (inactive) in the experiment on SNB-75, > 100 µM (inactive) in the experiment on TK-10 and > 100 µM (inactive) in the experiment with UO-31.

Consider `CC(C)(/N=N/C(C)(C)C(=O)NCCO)C(=O)NCCO`, for which the GI50 in the experiment on 786-0, in the experiment on A498, in the experiment on A549, with ACHN, in the experiment with COLO 205 and with HCC 2998 was > 100 µM (inactive) throughout. Moreover, the GI50 is greater than 100 µM in the experiment on HCT-15; > 100 µM (inactive) with HOP-62; > 100 µM (inactive) in the experiment on M14; > 100 µM (inactive) in the experiment on NCI-H226; > 100 µM (inactive) with NCI-H23; 39.7 µM (inactive) with NCI-H522. The GI50 in the experiment with OVCAR-8, in the experiment on SF-268, in the experiment on SK-MEL-2, in the experiment with SN12C, in the experiment on SNB-19 and in the experiment with TK-10 was > 100 µM (inactive) throughout. Also, the GI50 with UO-31 is > 100 µM (inactive).

In the case of `CCOC(=O)c1nc2ccccc2n(CC)c1=O`, the GI50 with A498 was > 100 µM (inactive); in the experiment on A549, > 100 µM (inactive); in the experiment on ACHN, > 100 µM (inactive); in the experiment on COLO 205 it was > 100 µM (inactive); with HCC 2998 it was > 100 µM (inactive); in the experiment on HCT-15 it was greater than 100 µM. Further, the GI50 in the experiment with HOP-62, with M14, with NCI-H226, in the experiment with NCI-H23, in the experiment on NCI-H522 and with OVCAR-8 was > 100 µM (inactive) throughout. The GI50 with SF-268, in the experiment with SK-MEL-2, with SN12C, in the experiment on SNB-19, in the experiment with TK-10 and in the experiment on UO-31 was > 100 µM (inactive) throughout.

The record behind these values is ChEMBL document CHEMBL1201862, “PubChem BioAssay data set” (2004).
